Test results taken from US11840686B2, “Modulation of prekallikrein (PKK) expression” (Ionis Pharmaceuticals, Inc., priority 2013, dated 2023).
Strand notation (5' to 3'): a small letter for the sugar, then the base; units joined by * are phosphorothioate-linked, units joined directly phosphodiester-linked; [ ] holds rarer units or linkages, { } end groups; capitals alone tell only the bases. e = 2'-O-(2-methoxyethyl) (MOE); k = constrained ethyl (cEt); [5mC] = 5-methylcytosine; d = 2'-deoxy (DNA)

Key:
[1] = tested on: human PKK mRNA; assay: Dose-dependent antisense inhibition of human PKK in HepaRG cells, 0.11-3.00 uM (Example 6); format: cell-based; conditions: for IC50: 0.11-3.00 μM; for percent inhibition of PKK mRNA, 0.11 μM / percent inhibition of PKK mRNA, 0.33 μM / percent inhibition of PKK mRNA, 1.00 μM / percent inhibition of PKK mRNA, 3.00 μM: electroporation, approx. 16 hours, relative to untreated control cells
Protocol: Cells were plated at a density of 20,000 cells per well and transfected using electroporation with 0.11 μM, 0.33 μM, 1.00 μM, and 3.00 μM concentrations of antisense oligonucleotide. After a treatment period of approximately 16 hours, RNA was isolated from the cells and PKK mRNA levels were measured by quantitative real-time PCR. Human PKK primer probe set RTS3454 was used to measure mRNA levels. PKK mRNA levels were adjusted according to total RNA content, as measured by RIBOGREEN®. The antisense oligonucleotides were tested in a series of experiments that had similar culture conditions.
The half maximal inhibitory concentration (IC50) of each oligonucleotide is also presented.

[2] = tested on: human PKK mRNA; assay: Antisense inhibition of human PKK mRNA in HepaRG cells, 1,000 nM, MOE/deoxy/cEt oligonucleotides (Example 3); format: cell-based
Outline: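 HepaRG cells at 20,000 per well electroporated with 1,000 nM 16-mer MOE/cEt/deoxy gapmers (phosphorothioate, 5-methylcytosine). After about 24 h, PKK mRNA measured by qRT-PCR with primer probe set RTS3454, normalized to RIBOGREEN total RNA. Reported as percent inhibition versus untreated cells.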

[3] = HepaRG cells, electroporation with 1,000 nM antisense oligonucleotide, approx. 24 hours, PKK mRNA by RT-PCR (RTS3454), relative to untreated control cells, Table 26 experiment
[4] = PKK mRNA, HepaRG cells, 1,000 nM antisense oligonucleotide, Table 31
[5] = HepaRG cells, 1,000 nM antisense oligonucleotide, Table 29
[6] = HepaRG cells, electroporation with 1,000 nM antisense oligonucleotide, approx. 24 hours, PKK mRNA by RT-PCR (RTS3454), relative to untreated control cells, Table 25 experiment
[7] = Table 28, HepaRG cells, 1,000 nM antisense oligonucleotide, human PKK mRNA
[8] = HepaRG cells, electroporation with 1,000 nM antisense oligonucleotide, approximately 24 hours, primer probe set RTS3454, relative to untreated control cells, experiment of Table 24

Substance	IC50 [1]	percent inhibition of PKK mRNA, 0.11 μM [1]	percent inhibition of PKK mRNA, 0.33 μM [1]	percent inhibition of PKK mRNA, 1.00 μM [1]	percent inhibition of PKK mRNA, 3.00 μM [1]	other results
548278 (antisense eG*eG*kT*dT*d[5mC]*d[5mC]*d[5mC]*dT*dA*dG*d[5mC]*dG*dG*kT*k[5mC]*e[5mC]) [compound 548278]	0.4 µM	3%	59%	78%	93%	% inhibition [2, 3]: 74%
548422 (antisense eG*eT*kA*dT*d[5mC]*dA*d[5mC]*dT*dG*dT*d[5mC]*d[5mC]*dT*kA*kT*eA) [compound 548422]	0.7 µM	0%	32%	71%	93%	% inhibition ([2]; Table 30, human PKK mRNA, HepaRG cells, 1,000 nM antisense oligonucleotide): 69%
548265 (antisense e[5mC]*e[5mC]*kT*d[5mC]*dT*dT*dG*dA*dT*dT*dT*dG*dG*kG*k[5mC]*eA) [compound 548265]		47%	69%	78%	67%	% inhibition [2, 3]: 85%
548668 (antisense eG*eG*kG*dA*dG*d[5mC]*dT*dT*dT*d[5mC]*dA*dT*dG*kG*k[5mC]*eT) [compound 548668]	0.7 µM	10%	30%	61%	84%	% inhibition [2, 4]: 68%
548583 (eG*eG*kG*dA*dA*dT*dT*dT*dA*dT*dG*d[5mC]*dT*kG*k[5mC]*e[5mC]; antisense) [compound 548583]	0.2 µM	43%	46%	93%	88%	% inhibition [2, 5]: 79%
548170 (eA*eG*kT*dT*dG*d[5mC]*dG*dA*d[5mC]*d[5mC]*dT*d[5mC]*dG*k[5mC]*kA*eT; antisense) [compound 548170]	2 µM	0%	8%	26%	65%	% inhibition [2, 6]: 68%
548486 (e[5mC]*eG*kT*dG*dG*dT*dT*dA*dG*d[5mC]*d[5mC]*dT*dG*kA*k[5mC]*eA; antisense) [compound 548486]	0.4 µM	20%	48%	77%	92%	% inhibition [2, 7]: 68%
548024 (eG*e[5mC]*kT*dG*dT*d[5mC]*dA*dG*d[5mC]*dT*dT*d[5mC]*dA*k[5mC]*k[5mC]*eT; antisense) [compound 548024]	0.3 µM	28%	57%	84%	82%	% inhibition [2, 8]: 79%
547769 (antisense eT*eT*kG*dG*dA*dG*dG*dT*dG*dA*dG*dT*d[5mC]*kT*k[5mC]*eT) [compound 547769]	0.6 µM	12%	17%	80%	96%	% inhibition ([2]; Table 21 experiment, HepaRG cells, electroporation with 1,000 nM antisense oligonucleotide, approx. 24 hours, PKK mRNA by RT-PCR (RTS3454), relative to untreated control cells): 81%
548055 (eG*eT*kA*dA*dT*dT*d[5mC]*dA*dA*dA*dG*dG*dA*kG*k[5mC]*e[5mC]; antisense) [compound 548055]	0.3 µM	43%	57%	50%	88%	% inhibition [2, 8]: 78%
547849 (antisense eA*eA*kT*dG*dT*d[5mC]*dT*d[5mC]*dG*dA*dT*dG*dG*k[5mC]*kA*eA) [compound 547849]	0.3 µM	36%	52%	67%		% inhibition ([2]; Table 20, HepaRG cells, electroporation with 1,000 nM antisense oligonucleotide, approximately 24 hours, PKK mRNA by RT-PCR (RTS3454), relative to untreated control cells): 79%; % inhibition ([2]; Table 22 experiment, HepaRG cells, electroporation with 1,000 nM antisense oligonucleotide, approx. 24 hours, PKK mRNA by RT-PCR (RTS3454), relative to untreated control cells): 90%
547979 (antisense eG*eT*k[5mC]*dT*d[5mC]*dT*dT*dG*dG*d[5mC]*dA*dA*dA*k[5mC]*kA*eT) [compound 547979]		56%	58%	94%	97%	% inhibition ([2]; HepaRG cells, electroporation with 1,000 nM antisense oligonucleotide, approximately 24 hours, primer probe set RTS3454, relative to untreated control cells, experiment of Table 23): 77%
548479 (eA*eG*kG*d[5mC]*d[5mC]*dA*dT*dT*dT*dG*dA*dT*d[5mC]*k[5mC]*kG*eA; antisense) [compound 548479]	0.4 µM	2%	52%	82%	97%	% inhibition [2, 7]: 68%
548655 (antisense e[5mC]*e[5mC]*k[5mC]*dG*dA*dG*dG*dT*d[5mC]*dA*d[5mC]*dA*dT*kA*kA*eT) [compound 548655]	> 3 µM	0%	0%	8%	33%	% inhibition [2, 4]: 56%
548047 (eG*eA*kT*dA*dT*d[5mC]*dA*dT*dG*dA*dT*dT*d[5mC]*k[5mC]*k[5mC]*eT; antisense) [compound 548047]		50%	62%	76%	95%	% inhibition [2, 8]: 83%
548106 (antisense e[5mC]*e[5mC]*kA*dT*dG*dT*dA*d[5mC]*dT*d[5mC]*dA*dG*d[5mC]*kG*kA*e[5mC]) [compound 548106]		53%	54%	82%	94%	% inhibition ([2]; Table 19, HepaRG cells, electroporation with 1,000 nM antisense oligonucleotide, approximately 24 hours, PKK mRNA by RT-PCR (RTS3454), relative to untreated control cells): 79%
548220 (eG*e[5mC]*kA*dG*dA*dA*dA*dT*d[5mC]*d[5mC]*dT*dG*dT*kG*k[5mC]*eA; antisense) [compound 548220]	> 3 µM	0%	0%	0%	6%	% inhibition [2, 6]: 69%
548521 (antisense e[5mC]*eA*kG*d[5mC]*dT*d[5mC]*d[5mC]*d[5mC]*dT*dT*dA*d[5mC]*dT*kA*kG*eG) [compound 548521]	> 3 µM	21%	0%	3%	1%	% inhibition [2, 7]: 61%
548010 (eA*eG*kT*dG*dT*dT*dA*d[5mC]*dA*d[5mC]*dA*dA*dT*k[5mC]*kT*e[5mC]; antisense) [compound 548010]	1.4 µM	0%	11%	49%	64%	% inhibition [2, 8]: 80%
548046 (eT*eA*kT*d[5mC]*dA*dT*dG*dA*dT*dT*d[5mC]*d[5mC]*d[5mC]*kT*kT*e[5mC]; antisense) [compound 548046]	0.7 µM	7%	35%	64%	77%	% inhibition [2, 8]: 84%
548547 (antisense eG*eT*kG*d[5mC]*dG*dA*dT*dT*dA*dA*dG*d[5mC]*d[5mC]*k[5mC]*k[5mC]*eA) [compound 548547]	0.4 µM	30%	41%	76%	90%	% inhibition [2, 5]: 86%
